# Legend:
# Digitaria ciliaris [1] = experiment: Farming soil treatment test; assay type: in vivo; conditions: soil surface spray prior to weed growth, 30 days
# Method: (§1) 2. Farming Soil Treatment Test
# (§2) Field soil was filled into a 1/6000 are pot followed by seeding with Digitaria ciliaris, Chenopodium album and Amaranthus retroflexus and covering with soil.
# (§3) Wettable powder of compounds of formula (D shown in Table 1 prepared in compliance with the preparation examples were diluted with water to the prescribed amount of chemical and uniformly sprayed onto each soil surface layer using 10 liters of sprayed water per are prior to weed growth following seeding.
# (§4) After treating for 30 days in a glass greenhouse at an average atmospheric temperature of 30° C., the herbicidal efficacy thereof was investigated.
# (§5) Evaluation of herbicidal efficacy was carried out in the same manner as the above-mentioned Test Example 1.
# Chenopodium album [2] = experiment: Farming soil treatment test; assay type: in vivo; conditions: soil surface spray prior to weed growth, 30 days
# Method: as §1, §2, §3, §4, §5
# Amaranthus retroflexus [3] = experiment: Farming soil treatment test; assay type: in vivo; conditions: soil surface spray prior to weed growth, 30 days
# Method: as §1, §2, §3, §4, §5
# Digitaria ciliaris [4] = experiment: Weed foliar treatment test; assay type: in vivo; conditions: foliar spray at 1.0 to 2.0 leaf stage of Digitaria ciliaris, 3 weeks
# Method: (§6) 3. Weed Foliar Treatment Test
# (§7) Soil was filled into a 1/6000 are pot followed by seeding with Digitaria ciliaris, Chenopodium album and Amaranthus retroflexus, covering with soil, and cultivating in a glass greenhouse at an average atmospheric temperature of 25° C.
# (§8) Wettable powder of Target Compound (I) shown in Table 1 prepared in compliance with the preparation examples were diluted with water to the prescribed amount of chemical and uniformly sprayed onto the weeds using 15 liters of sprayed water per are when Digitaria ciliaris had grown to the 1.0 to 2.0 leaf stage.
# (§9) After treating for 3 weeks in a glass greenhouse at an average atmospheric temperature of 25° C., the herbicidal efficacy thereof was investigated.
# as §5
# Chenopodium album [5] = experiment: Weed foliar treatment test; assay type: in vivo; conditions: foliar spray, 3 weeks
# Method: as §6, §7, §8, §9, §5
# Amaranthus retroflexus [6] = experiment: Weed foliar treatment test; assay type: in vivo; conditions: foliar spray, 3 weeks
# Method: as §6, §7, §8, §9, §5
# Monochoria vaginalis = experiment: Paddy herbicidal activity test; assay type: in vivo; conditions: irrigated paddy pot, 30 days
# Method in brief: (§10)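 Flooded paddy-soil pots (3 cm water) seeded with weeds; rice at 2.0-leaf stage transplanted when Echinochloa reached 3.5-leaf stage, then diluted wettable powder dropped in at set rate per are. After 30 days in greenhouse (avg 30° C), growth inhibition (%) scored on 11-level scale vs untreated (efficacy) or complete-kill group (phytotoxicity).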
# Scirpus juncoides = experiment: Paddy herbicidal activity test; assay type: in vivo; conditions: irrigated paddy pot, 30 days
# Method in brief: as §10
# Echinochloa crus-galli = experiment: Paddy herbicidal activity test; assay type: in vivo; conditions: irrigated paddy pot, treated at 3.5 leaf stage of Echinochloa crus-galli, 30 days
# Method in brief: as §10
# Rice plants = experiment: Paddy herbicidal activity test, phytotoxicity to transplanted rice; assay type: in vivo; conditions: rice transplanted in 2.0 leaf stage, 30 days
# Method in brief: as §10
Compound,herbicidal efficacy (growth inhibition rate level) Digitaria ciliaris (Digitaria ciliaris [1]; 5g a.i./10a),herbicidal efficacy (growth inhibition rate level) Digitaria ciliaris (Digitaria ciliaris [1]; 10g a.i./10a),herbicidal efficacy (growth inhibition rate level) Chenopodium album (Chenopodium album [2]; 5g a.i./10a),herbicidal efficacy (growth inhibition rate level) Chenopodium album (Chenopodium album [2]; 10g a.i./10a),herbicidal efficacy (growth inhibition rate level) Amaranthus retroflexus (Amaranthus retroflexus [3]; 5g a.i./10a),herbicidal efficacy (growth inhibition rate level) Amaranthus retroflexus (Amaranthus retroflexus [3]; 10g a.i./10a),herbicidal efficacy (growth inhibition rate level) Digitaria ciliaris (Digitaria ciliaris [4]; 5g a.i./10a),herbicidal efficacy (growth inhibition rate level) Digitaria ciliaris (Digitaria ciliaris [4]; 10g a.i./10a),herbicidal efficacy (growth inhibition rate level) Chenopodium album (Chenopodium album [5]; 5g a.i./10a),herbicidal efficacy (growth inhibition rate level) Chenopodium album (Chenopodium album [5]; 10g a.i./10a),herbicidal efficacy (growth inhibition rate level) Amaranthus retroflexus (Amaranthus retroflexus [6]; 5g a.i./10a),herbicidal efficacy (growth inhibition rate level) Amaranthus retroflexus (Amaranthus retroflexus [6]; 10g a.i./10a),herbicidal efficacy (growth inhibition rate level) Monochoria vaginalis (Monochoria vaginalis; 1g a.i./10a),herbicidal efficacy (growth inhibition rate level) Monochoria vaginalis (Monochoria vaginalis; 5g a.i./10a),herbicidal efficacy (growth inhibition rate level) Scirpus juncoides (Scirpus juncoides; 1g a.i./10a),herbicidal efficacy (growth inhibition rate level) Scirpus juncoides (Scirpus juncoides; 5g a.i./10a),herbicidal efficacy (growth inhibition rate level) Echinochloa crus-galli (Echinochloa crus-galli; 1g a.i./10a),herbicidal efficacy (growth inhibition rate level) Echinochloa crus-galli (Echinochloa crus-galli; 5g a.i./10a),phytotoxicity (growth inhibition rate level) Rice plants (Rice plants; 1g a.i./10a),phytotoxicity (growth inhibition rate level) Rice plants (Rice plants; 5g a.i./10a),also measured
"N#Cc1cnn(-c2nn3c(c2Cl)CCCC3)c1N(CCCl)C(=O)C(F)(F)F [Compound 1, N-(2-chloroethyl)-N-(1-(3-chloro-4,5,6,7-tetrahydropyrazolo[1,5-a]pyridin-2-yl)-4-cyanopyrazol-5-yl)-2,2,2-trifluoroacetamide]",10 (100%),10 (100%),10 (100%),10 (100%),10 (100%),10 (100%),10 (100%),10 (100%),10 (100%),10 (100%),10 (100%),10 (100%),8 (80% to less than 90%),9 (90% to less than 100%),9 (90% to less than 100%),10 (100%),9 (90% to less than 100%),10 (100%),0 (0 (exponent): 0% to less than 10% (growth inhibition rate)),1 (10% to less than 20%),melting point: 87 to 89 °C
"COCCN(C(=O)C(F)(F)F)c1c(C#N)cnn1-c1nn2c(c1Cl)CCCC2 [Compound 2, N-(1-(3-chloro-4,5,6,7-tetrahydropyrazolo[1,5-a]pyridin-2-yl)-4-cyanopyrazol-5-yl)-N-(2-methoxyethyl)-2,2,2-trifluoroacetamide]",10 (100%),10 (100%),10 (100%),10 (100%),10 (100%),10 (100%),10 (100%),10 (100%),10 (100%),10 (100%),10 (100%),10 (100%),8 (80% to less than 90%),9 (90% to less than 100%),9 (90% to less than 100%),9 (90% to less than 100%),9 (90% to less than 100%),9 (90% to less than 100%),0 (0 (exponent): 0% to less than 10% (growth inhibition rate)),1 (10% to less than 20%),melting point: 102 to 103 °C
CN(C(=O)C(F)(F)F)c1c(C#N)cnn1-c1nn2c(c1Cl)CCCC2 [Control agent 4.237],4 (40% to less than 50%),5 (50% to less than 60%),4 (40% to less than 50%),4 (40% to less than 50%),5 (50% to less than 60%),5 (50% to less than 60%),5 (50% to less than 60%),6 (60% to less than 70%),4 (40% to less than 50%),5 (50% to less than 60%),4 (40% to less than 50%),6 (60% to less than 70%),2 (20% to less than 30%),3 (30% to less than 40%),2 (20% to less than 30%),4 (40% to less than 50%),1 (10% to less than 20%),4 (40% to less than 50%),1 (10% to less than 20%),2 (20% to less than 30%),–
CCN(C(=O)C(F)(F)F)c1c(C#N)cnn1-c1nn2c(c1Cl)CCCC2 [Control agent 4.238],5 (50% to less than 60%),6 (60% to less than 70%),4 (40% to less than 50%),5 (50% to less than 60%),4 (40% to less than 50%),5 (50% to less than 60%),4 (40% to less than 50%),5 (50% to less than 60%),4 (40% to less than 50%),6 (60% to less than 70%),5 (50% to less than 60%),6 (60% to less than 70%),0 (0 (exponent): 0% to less than 10% (growth inhibition rate)),1 (10% to less than 20%),2 (20% to less than 30%),3 (30% to less than 40%),2 (20% to less than 30%),4 (40% to less than 50%),2 (20% to less than 30%),2 (20% to less than 30%),–

# Reference: patent US9518061B2, “Substituted pyrazolylpyrazole derivative and use of same as herbicide” (KYOYU AGRI CO., LTD., priority 2013, dated 2016)
